Counter-ions that a name gives are not always drawn.

The melting point is the temperature of the solid-liquid transition. In turn, `Cc1ccc(C)c(C(=O)NCCC23CC4CC(CC(C4)C2)C3)c1` [Example 75, 2,5-Dimethyl-N-(2-[tricyclo[3.3.1.1^3,7]dec-1-yl]ethyl)-benzamide] returned a melting point of 153 °C.
Molecule `O=C(NCC12CC3CC(CC(C3)C1)C2)c1cccc([N+](=O)[O-])c1Cl` [Example 52, 2-Chloro-3-nitro-N-(tricyclo[3.3.1.1^3,7]dec-1-ylmethyl)-benzamide] gave a melting point of 185 °C.
In turn, `CN(C)CCNc1ccc(Cl)c(C(=O)NCC23CC4CC(CC(C4)C2)C3)c1` [Example 57, 2-Chloro-5-(N,N-dimethylamino)ethylamino-N-(tricyclo[3.3.1.1^3,7]dec-1-ylmethyl)-benzamide] showed a melting point of 215 °C.
Then `O=C(NCC12CC3CC(CC(C3)C1)C2)c1cc(NCCN2CCCCC2)ccc1Cl` (as salt: hydrochloride) [Example 70, 2-Chloro-5-(2-(piperidin-1-yl)ethylamino)-N-(tricvclo(3.3.1.1^3,7]dec-1-ylmethyl)-benzamide, hydrochloride], with 142 to 143 °C (dec.).
Then `N#Cc1ccccc1Sc1ccccc1C(=O)NCC12CC3CC(CC(C3)C1)C2` [Example 16, 2-(2-Cyanophenylthio)-N-(tricyclo[3.3.1.1^3,7]dec-1-methyl)-benzamide], with 62 to 65 °C; and `Cc1ccc(C)c(C(=O)NCC23CC4CC(CC(Cl)(C4)C2)C3)c1` [Example 78, 2,5-Dimethyl-N-(3-chloro-tricyclo[3.3.1.1^3,7]dec-1ylmethyl)-benzamide], with 155 °C; and `O=C(NCC12CC3CC(CC(C3)C1)C2)c1cccnc1Sc1cc(O)ccc1O` [Example 44, 2-(2,5-Dihydroxyphenylthio)-N-(tricyclo[3.3.1.1^3,7]dec-1-ylmethyl)-3-pyridine carboxamide], with 108 to 110 °C.
The value for `O=C(O)COc1ccc(Sc2ncccc2C(=O)NCC23CC4CC(CC(C4)C2)C3)cc1` [Example 47, 3-[[(Tricyclo[3.3.1.1^3,7]dec-1-ylmethyl)amino]carbonyl]pyridyl-2-(4-phenylthio) oxyacetic acid] was 185 to 186 °C; that for `O=C(NCC12CC3CC(CC(C3)C1)C2)c1cc(O)ccc1Cl` [Example 51, 2-Chloro-5-hydroxy-N-(tricyclo[3.3.1.1^3,7]dec-1-ylmethyl)-benzamide] was 263 to 264 °C.
With `O=C(NCC12CC3CC(CC(C3)C1)C2)c1cc(NCCCl)ccc1Cl`, the melting point lay in the range of 144 to 145 °C.
`COc1ccc(OC)c(Sc2ncccc2C(=O)NCC23CC4CC(CC(C4)C2)C3)c1` [Example 37, 2-(2,5-Dimethoxyphenylthio)-N-(tricyclo[3.3.1.1^3,7]dec-1-ylmethyl)-3-pyridine carboxamide] displayed a melting point of 135 to 136 °C.
The value for `CSc1ccc(Cl)c(C(=O)NCC23CC4CC(CC(C4)C2)C3)c1` [Example 38, 2-Chloro-5-methylthio-N-(tricyclo[3.3.1.1^3,7]dec-1-ylmethyl)-benzamide] was 126 to 127 °C; that for `O=C(NCCC12CC3CC(CC(C3)C1)C2)c1cccc(Cl)c1Cl` [Example 73, 2,3-Dichloro-N-(2-[tricyclo(3.3.1.1^3,7]dec-1-yl]ethyl)-benzamide] was 158 to 159 °C; that for `Nc1cccc(Cl)c1C(=O)NCC12CC3CC(CC(C3)C1)C2` [Example 14, 2-Amino-6-chloro-N-(tricyclo[3.3.1.1^3,7]dec-1-methyl)-benzamide] was 182 to 183 °C.
With `O=C(NCC12CC3CC(CC(C3)C1)C2)c1cccc(Cl)c1` [Example 20, 3-Chloro-N-(tricyclo[3.3.1.1^3,7]dec-1-methyl)-benzamide], the melting point was 125 to 126 °C.
Then `Cc1ccc(C)c(C(=O)NCC23CC4CC(CC(C4)C2)C3)c1` [Example 22, 2,5-Dimethyl-N-(tricyclo[3.3.1.1^3,7]dec-1-methyl)-benzamide], with 153 to 154 °C.
The value for `O=C(NCC12CC3CC(CC(C3)C1)C2)c1cc(I)ccc1Cl` [Example 80, 2-Chloro-5-iodo-N-(tricyclo[3.3.1.1^3,7]dec-1-ylmethyl)-benzamide] was 161.4 to 161.5 °C; that for `COc1cc(OC)c(C)c(C(=O)NCC23CC4CC(CC(C4)C2)C3)c1` [Example 67, 3,5-Dimethoxy-2-methyl-N-(tricyclo[3.3.1.1^3,7]dec-1-ylmethyl)-benzamide] was 173 to 175 °C; that for `CNc1ccc(Cl)c(C(=O)NCC23CC4CC(CC(C4)C2)C3)c1` [Example 62, 2-Chloro-5-methylamino-N-(tricyclo[3.3.1.1^3,7]dec-1-ylmethyl)-benzamide] was 163 to 164 °C.
Then `O=C(NCC12CC3CC(CC(C3)C1)C2)c1c(F)cccc1F` [Example 12, 2,6-Difluoro-N-(tricyclo[3.3.1.1^3,7]dec-1-methyl)-benzamide], with 162 to 163 °C.
Turning to `O=C(NCC12CC3CC(CC(C3)C1)C2)c1cc(NCCNCCO)ccc1Cl` (as salt: hydrochloride) [Example 71, 5-(N-(2-Hydroxyethyl)-2-aminoethyl)amino-2-chloro-N-(tricyclo[3.3.1.1^3,7]dec-1-ylmethyl)-benzamide, dihydrochloride], the melting point is 143 °C (dec.).
The value for `CSc1nc(C)ccc1C(=O)NCC12CC3CC(CC(C3)C1)C2` [Example 49, (2-Methylthio-6-methyl)-N-(tricyclo[3.3.1.1^3,7]dec-1-ylmethyl)-3-pyridine carboxamide] was 160 to 161 °C; that for `O=C(NCC12CC3CC(CC(Cl)(C3)C1)C2)c1ccccc1Cl` [Example 76, 2-Chloro-N-(3-chloro-tricyclo[3.3.1.1^3,7]dec-1-ylmethyl)-benzamide] was 153 °C; that for `O=C(O)CCCOc1ccccc1C(=O)NCC12CC3CC(CC(C3)C1)C2` [Example 50, 2-[[(Tricyclo[3.3.1.1^3,7]dec-1-ylmethyl)amino]carbonyl]phenyl-1-oxybutyric acid] was 109 to 113 °C.

Source of the values: patent US20010003121A1, “Novel compounds” (AstraZeneca UK Limited, priority 1997, published 2001).
